Test results: patent publication US20240287079A1, “6-AMINOPYRAZOLOPYRIMIDINE COMPOUND AND PHARMACEUTICAL USE THEREOF” (Japan Tobacco Inc., priority 2021, published 2024)

target: NLRP3 inflammasome (Homo sapiens (Human), UniProt Q96P20); assay: Evaluation of NLRP3 inflammasome inhibitory activity (inhibition of IL-1β production in LPS/Nigericin-stimulated THP1-Null cells); type: cell-based; details: IL-1β production in THP1-Null cells, PMA, LPS 1 μg/mL, Nigericin 7.5 μmol/L, AlphaLISA
Experimental: The NLRP3 inflammasome inhibitory activity of test compounds were evaluated on the basis of the inhibitory activity of the IL-1β production in THP1-Null cells (Product Number: thp-null, InvivoGen). […] The supernatant of the culture was removed, and thereto was added media for assay (25 μL/well) containing 1 μg/mL Lipopolysaccharides (Product Number: L2654, Sigma-Aldrich (registered trademark)). […] The supernatant of the culture was removed. […] A solution containing a test compound (20 μL/well) was added to test compound-setting wells. […] The supernatant of the culture was cryonically stored (set at −20° C.) until measurement of IL-1β.
The amount of IL-1β in the culture supernatant was quantitated with AlphaLISA(registered trademark) Human IL-1β Detection Kit (Product Number: AL220C, Perkin Elmer). Fluorescence intensity was measured with a microplate reader EnSpier (Model number: 2300-00J, Perkin Elmer) or EnSight(Model number: HH34000000, Perkin Elmer) according to procedure manuals attached thereto. Inhibition rates of the test compound-setting wells were calculated on the basis of 100% for the blank-setting wells and 0% for the control-setting wells.

Chain of NLRP3 inflammasome (Q96P20 whole entry): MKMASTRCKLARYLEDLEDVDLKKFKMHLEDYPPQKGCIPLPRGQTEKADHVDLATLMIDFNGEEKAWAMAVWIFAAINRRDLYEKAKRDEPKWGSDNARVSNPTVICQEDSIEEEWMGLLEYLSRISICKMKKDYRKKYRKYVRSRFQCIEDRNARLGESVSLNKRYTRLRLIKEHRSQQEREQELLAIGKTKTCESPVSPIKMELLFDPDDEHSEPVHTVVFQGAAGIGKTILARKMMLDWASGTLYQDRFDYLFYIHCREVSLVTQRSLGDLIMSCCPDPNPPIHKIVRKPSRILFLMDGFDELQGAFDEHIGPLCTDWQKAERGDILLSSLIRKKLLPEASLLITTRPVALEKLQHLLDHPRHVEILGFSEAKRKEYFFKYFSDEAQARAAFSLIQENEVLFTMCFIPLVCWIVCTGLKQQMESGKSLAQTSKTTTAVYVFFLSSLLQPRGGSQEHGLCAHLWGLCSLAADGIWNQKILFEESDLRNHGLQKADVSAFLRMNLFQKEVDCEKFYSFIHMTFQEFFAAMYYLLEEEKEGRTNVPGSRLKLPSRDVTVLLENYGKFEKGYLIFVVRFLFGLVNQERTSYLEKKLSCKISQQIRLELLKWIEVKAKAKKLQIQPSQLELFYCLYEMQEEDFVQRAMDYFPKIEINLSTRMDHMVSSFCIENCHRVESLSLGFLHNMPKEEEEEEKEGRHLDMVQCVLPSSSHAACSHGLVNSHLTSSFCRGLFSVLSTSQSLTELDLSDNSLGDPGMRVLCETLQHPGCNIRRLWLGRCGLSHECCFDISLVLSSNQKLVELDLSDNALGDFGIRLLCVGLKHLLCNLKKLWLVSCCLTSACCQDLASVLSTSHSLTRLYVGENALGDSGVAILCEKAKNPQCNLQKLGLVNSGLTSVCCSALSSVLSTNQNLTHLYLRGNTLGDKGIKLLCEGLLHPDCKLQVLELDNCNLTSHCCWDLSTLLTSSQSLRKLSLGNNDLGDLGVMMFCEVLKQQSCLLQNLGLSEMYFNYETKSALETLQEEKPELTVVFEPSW

SMILES | IC50
Cc1nn(C2CCCC2)c(C)c1-n1cc2c(=O)[nH]c(N3CCCC3)nc2n1 [Example 350] | 1200 nM
Cc1ccccc1-n1cc2c(=O)[nH]c(N3CCC(c4ccccc4)C3)nc2n1 (racemic) [Example 27] | 1200 nM
Cc1cc(C2CC2)cc(F)c1-n1cc2c(=O)[nH]c(N3CCOCC3)nc2n1 [Example 255] | 6.2 nM
Cc1cc(Br)ccc1-n1cc2c(=O)[nH]c(N3Cc4ccccc4C3)nc2n1 [Example 75] | 14 nM
O=c1[nH]c(N2CCOCC2)nc2nn(-c3ccc(C4CC4)cc3C3CC3)cc12 [Example 210] | 7.3 nM
Cc1cc(Br)cc(C)c1-n1cc2c(=O)[nH]c(N3CC4CC3C4)nc2n1 (racemic) [Example 217] | 7.1 nM
O=c1[nH]c(N2CC3CNCC3C2)nc2nn(-c3ccc(C(F)(F)F)cc3Cl)cc12 (stereo not shown) [Example 186] | 230 nM
Cc1ccccc1-n1cc2c(=O)[nH]c(N3CC(F)(F)C3)nc2n1 [Example 34] | 470 nM
Cc1cc(Br)cc(C)c1-n1cc2c(=O)[nH]c(N3CCOCC3=O)nc2n1 [Example 353] | 76 nM
Cc1cccc(C)c1-n1cc2c(=O)[nH]c(N3CCOCC3)nc2n1 [Example 233] | 760 nM
Cc1ccccc1-n1cc2c(=O)[nH]c(N3CCC(F)(F)C3)nc2n1 [Example 12] | 380 nM
Cc1ccc(-n2cc3c(=O)[nH]c(N4CC(F)(F)C(F)(F)C4)nc3n2)c(C)c1 [Example 85] | 24 nM
C#Cc1ccc(-n2cc3c(=O)[nH]c(N4CCCC4)nc3n2)c(C)c1 [Example 119] | 16 nM
Cc1cc(C2CC2)cc(C)c1-n1cc2c(=O)n(C)c(N3CC4CC(C3)O4)nc2n1 [Example 312] | 250 nM
Cc1cc(C)c(-n2cc3c(=O)[nH]c(N4CCCOCC4)nc3n2)c(C)c1 [Example 100] | 20 nM
Cc1cc(Br)cc(C)c1-n1cc2c(=O)[nH]c(N3CCCC3)nc2n1 [Example 280] | 4.2 nM
Cc1cc(C)c(-n2cc3c(=O)[nH]c(N4CCC(S(C)(=O)=O)C4)nc3n2)c(C)c1 (racemic) [Example 112] | 55 nM
Cc1ccccc1-n1cc2c(=O)[nH]c(N3CCOCC3)nc2n1 [Example 5] | 1400 nM
COCc1cc(Cl)ccc1-n1cc2c(=O)[nH]c(N3CCOCC3)nc2n1 [Example 143] | 59 nM

SMILES | IC50
Cc1cc(Br)ccc1-n1cc2c(OCC3CC3)nc(N3CCOCC3)nc2n1 [Example 155] | 290 nM
Cc1cc(OC(F)(F)F)cc(C)c1-n1cc2c(=O)[nH]c(N3CCOCC3)nc2n1 [Example 200] | 29 nM
CC(C)c1cc(C(F)(F)F)cnc1-n1cc2c(=O)[nH]c(N3CCOCC3)nc2n1 [Example 236] | 730 nM
Cc1cc(C2CC2)cc(F)c1-n1cc2c(=O)[nH]c(N3C[C@@H]4C[C@H]3CO4)nc2n1 [Example 300] | 15 nM
[2H]C([2H])([2H])Nc1nc2nn(-c3c(C)cc(Br)cc3C)cc2c(=O)[nH]1 [Example 229] | 9.4 nM
O=c1[nH]c(N2CCOCC2)nc2nn(-c3c(Cl)cc(C(F)(F)F)cc3OCC3CC3)cc12 [Example 190] | 41 nM
COCC(=O)N1CC2CC1CN2c1nc2nn(-c3c(C)cc(C4CC4)cc3C)cc2c(=O)[nH]1 (racemic) [Example 234] | 24 nM
Cc1ccccc1-n1cc2c(=O)[nH]c(N3CCCCCC3)nc2n1 [Example 22] | 8200 nM
CO[C@@H]1CCN(c2nc3nn(-c4c(C)cc(C5CC5)cc4C)cc3c(=O)[nH]2)C1 [Example 317] | 5.2 nM
O=c1[nH]c(N2CC(F)C2)nc2nn(-c3ccc(C(F)(F)F)cc3Cl)cc12 [Example 181] | 17 nM
Cc1cc(C2CC2)cc(C)c1-n1cc2c(=O)[nH]c(N3C[C@@H]4C[C@H]3CO4)nc2n1 [Example 207] | 5.9 nM
Cc1ccc(C(F)(F)F)cc1-n1cc2c(=O)[nH]c(N3CCCC3)nc2n1 [Example 6] | 4000 nM
Cc1cc(C2CC2)cc(C(F)(F)F)c1-n1cc2c(=O)[nH]c(N3CCOCC3)nc2n1 [Example 175] | 13 nM
Cc1cc(Br)cc(C)c1-n1cc2c(=O)[nH]c(N3CC4COC(C4)C3)nc2n1 (racemic) [Example 279] | 15 nM
Cc1cc(C)c(-n2cc3c(=O)[nH]c(N4CCN(C(=O)OC(C)(C)C)CC4)nc3n2)c(C)c1 [Example 101] | 5.6 nM
O=c1[nH]c(NC2CCOCC2)nc2nn(-c3ccc(C(F)(F)F)cc3Cl)cc12 [Example 184] | 67 nM
Cc1cc(OC(F)F)cc(C)c1-n1cc2c(=O)[nH]c(N3CCOCC3=O)nc2n1 [Example 354] | 220 nM
Cc1cc(C(F)F)cc(C)c1-n1cc2c(=O)[nH]c(N3CCOCC3)nc2n1 [Example 329] | 45 nM
O=c1[nH]c(N2CCCC2)nc2nn(-c3ccc(C(F)(F)F)cc3)cc12 [Example 49] | 340 nM

SMILES | IC50
Cc1ccccc1-n1cc2c(=O)[nH]c(N3CCOCC3C)nc2n1 (racemic) [Example 17] | 2800 nM
COC1CCN(c2nc3nn(-c4c(C)cc(C)cc4C)cc3c(=O)[nH]2)C1 (racemic) [Example 93] | 9.1 nM
Cc1cccc(C)c1-n1cc2c(=O)[nH]c(N3CC(OCC(F)(F)F)C3)nc2n1 [Example 51] | 2200 nM
Cc1cc(Cl)cc(C(C)C)c1-n1cc2c(=O)[nH]c(N3CCOCC3)nc2n1 (racemic) [Example 188] | 89 nM
CO[C@H]1CCN(c2nc3nn(-c4c(C)cc(C5CC5)cc4C)cc3c(=O)[nH]2)C1 [Example 319] | 24 nM
Cc1cc(Br)cc(C)c1-n1cc2c(=O)[nH]c(N3CCCOCC3)nc2n1 [Example 145] | 12 nM
Cc1ccccc1-n1cc2c(=O)[nH]c(N3CCC3)nc2n1 [Example 16] | 1300 nM
CCc1cc(C)c(-n2cc3c(=O)[nH]c(N4CCOCC4)nc3n2)c(C)c1 [Example 292] | 28 nM
Cc1cc(Br)cc(C)c1-n1cc2c(=O)[nH]c(N3CCOC(O)C3)nc2n1 (racemic) [Example 364] | 66 nM
O=c1[nH]c(N2CCCC2)nc2nn(-c3ccc(Cl)cc3C(F)(F)F)cc12 [Example 218] | 5.7 nM
Cc1cc(Br)cc(C)c1-n1cc2c(=O)[nH]c(N3C[C@@H]4C[C@H]3CO4)nc2n1 [Example 195] | 6.8 nM
Cc1cc(C)c(-n2cc3c(=O)[nH]c(N4CCN(S(=O)(=O)C5CC5)CC4)nc3n2)c(C)c1 [Example 103] | 6.5 nM
Cc1cc(Cl)cc(CO)c1-n1cc2c(=O)[nH]c(N3CCOCC3)nc2n1 [Example 158] | 92 nM
O=c1[nH]c(N2CCOCC2)nc2nn(-c3c(F)cc(Br)cc3C(F)(F)F)cc12 [Example 272] | 22 nM
COCc1cc(Cl)ccc1-n1cc2c(=O)[nH]c(N3CC(F)(F)C3)nc2n1 [Example 161] | 22 nM
Cc1ccc(-n2cc3c(=O)[nH]c(N4CCOCC4)nc3n2)c(C)c1 [Example 126] | 53 nM
Cc1cc(Br)ccc1-n1cc2c(=O)n(CCO)c(N3CCOCC3)nc2n1 [Example 163] | 47 nM
Cc1cc(-n2cc3c(=O)[nH]c(N4CCOCC4)nc3n2)c(C)cc1Cl [Example 265] | 350 nM

same assay, conditions: IL-1β production in THP1-Null cells; test compound 0.0024 μM

SMILES | inhibition at 0.0024 µM
Cc1cc(Br)cc(C)c1-n1cc2c(=O)[nH]c(NCCO)nc2n1 [Example 359] | 69%
CCNc1nc2nn(-c3c(C)cc(Br)cc3C)cc2c(=O)[nH]1 [Example 227] | 52%
